Measured values taken from patent US20240148917A1, “PNA PROBES FOR PRETARGETED IMAGING AND THERAPY” (Zytox Therapeutics AB, priority 2020, published 2024).
Several values for one entry are separate records, joined by “and”; a condition that tells them apart may be missing. Equal values may be shown once. {DOTA-AEEA-S-S} = N-terminal DOTA chelator joined through an AEEA linker and two serines; {EEY-NH2} = C-terminal Glu-Glu-Tyr amide

Columns and labels:
ZHER2:342-SR-HP15 = test: SPR hybridization of complementary PNA probes to immobilized ZHER2:342-SR-HP15; type: binding; settings: for affinity to ZHER2:342-SR-HP15 relative to HP16: SPR, kd too slow to determine; for kd: dissociation 10 000 s
Description: The kinetic parameters for hybridization of the PNA probes were analyzed using surface plasmon resonance (SPR) on a Biacore™ 8K instrument (GE Healthcare). Dextran chips Series S Sensor CM5 (GE Healthcare), were functionalized with ZHER2:342-SR-HP15 on four surfaces to 385, 194, 185 and 353 resonance units (RU) using standard amine coupling procedures. A reference surface on each chip was subjected to activation followed by deactivation. The complementary PNA probes HP16, HP17, HP18 and HP19 were injected at 5 concentrations; 22.6, 45.3, 90.6, 181.25 and 362.5 nM using a single cycle injection. Association for each concentration was allowed for 300 s, followed by the next injection and association phase. After injection of the final concentration, dissociation was allowed for 10 000 s (2 h 47 min) before regeneration with 10 mM HCl for 30 s followed by 15 mM NaOH for 30 s. All runs were performed in PBST (0.05% Tween-20) pH 7.4 using a flow rate of […] at 25° C. Kinetic parameters were calculated using 1:1 binding model in Biacore Insight Evaluation software.

SKOV3 xenografts = test: Estimated dosimetry: areas under time-activity plots for kidney and tumor; type: in vivo, BALB/c nu/nu mice; settings: non-decay corrected data, 4 and 144 h, pretargeted
Description: To estimate a ratio of absorbed doses in tumor and kidneys, cumulated activity in kidney and tumor were assessed. The estimation was based on a clinically validated two time point approach (Freedman 2020). The biodistribution data were non-decay corrected and areas under time-activity plot was calculated using GraphPad Prism software. The assumptions were that the main absorbed dose will be due to beta-particles, as cross-doses would be negligible, and the absorbed fraction would be equal to 1.

HP15 = test: Melting temperature of PNA hybridization complexes with HP15 (UV absorbance at 260 nm); type: physicochemical; settings: duplex with HP15, monitored at 260 nm
Description: Melting temperatures for HP15:HP16, HP15:HP17 and HP15:HP18 were determined by monitoring UV absorbance at 260 nm (Chirascan™, Applied Photophysics) at a temperature range from 20 to 95° C., using a temperature change of 1° C./min. The PNA complexes were heated to 80° C. for 5 min and were then allowed to hybridize at room temperature for 5 min prior to UV monitoring at room temperature for 5 min. CD spectra were collected before and after determination of thermal denaturation. The melting temperature for the HP15:HP19 complex was determined using a Varian Cary 50 Bio UV-visual spectrophotometer equipped with a single-cell Peltier thermostat controlled cuvette holder. The temperature in the cell was adjusted at a speed of 0.5° C./min between 20 to 80° C., and measurements were taken at 260 nm after a 60 s equilibration at each temperature point.

[1] = In vitro stability of 177Lu-labeled probes (EDTA challenge, PBS control); type: physicochemical; settings: 177Lu-labeled probe, 500-fold molar excess of EDTA
Description: To evaluate stability, a fraction of the freshly radiolabeled conjugate (0.4 μg) was incubated with 500-fold molar excess of EDTA for 60 min at 37° C. Incubation was also performed in PBS as a control. The test was run in triplicates.

[2] = binding to immobilized ZHER2:342-SR-HP15, SPR

Substance | affinity to ZHER2:342-SR-HP15 relative to HP16 (ZHER2:342-SR-HP15) | ka (ZHER2:342-SR-HP15; [2]) | kd (ZHER2:342-SR-HP15; [2]) | Tumor-to-kidney ratio (areas under time-activity plots) (SKOV3 xenografts) | Tm (HP15) | Stability (×500 EDTA), 37° C., 1 h [1] | Kd (ZHER2:342-SR-HP15; binding to immobilized ZHER2:342-SR-HP15, SPR, 25° C., 1:1 model) | Kd (ZHER2:342-SR-HP15; interaction with HP15, SPR)
DOTA-AEEA-S-S-a-t-c-a-t-c-a-a-c-a-c-c-a-g-g-E-E-Y-NH2 (ATCATCAACACCAGG; all peptide nucleic acid (PNA), 5' {DOTA-AEEA-S-S}, 3' {EEY-NH2}) [HP18, secondary probe, 15-mer PNA] | estimated to be higher | 57000 M⁻¹ s⁻¹ | too slow to be determined | 2.0 | 87 °C | 100 ± 0 | – | –
DOTA-AEEA-S-S-g-a-c-t-a-c-a-t-c-c-a-g-a-c-t-E-E-Y-NH2 (GACTACATCCAGACT; all peptide nucleic acid (PNA), 5' {DOTA-AEEA-S-S}, 3' {EEY-NH2}) [HP2, first-generation secondary PNA probe (Westerlund et al, 2015), reference compound] | – | – | – | 2.0 | – | – | – | –
DOTA-AEEA-S-S-a-a-c-a-c-c-a-g-g-E-E-Y-NH2 (AACACCAGG; chemistry not fully specified) [HP16, secondary probe, 9-mer PNA] | – | 46000 M⁻¹ s⁻¹ | 1.2e-05 s⁻¹ | 3.8 | 73 °C | 100 ± 0 | ~0.28 nM and 0.28 nM | –
DOTA-AEEA-S-S-a-c-c-a-g-g-E-E-Y-NH2 [HP19] | – | 2.1e+07 M⁻¹ s⁻¹ | 0.072 s⁻¹ | – | 55 °C | – | – | 3.4 nM
DOTA-AEEA-S-S-a-t-c-a-a-c-a-c-c-a-g-g-E-E-Y-NH2 (ATCAACACCAGG; chemistry not fully specified) [HP17, secondary probe, 12-mer PNA] | estimated to be higher | 43000 M⁻¹ s⁻¹ | too slow to be determined | 2.8 | 75 °C | 100 ± 0 | – | –
